# Publication PMC10661491 (Virus Research, 2023)
# Read-outs that look alike come from different tables or passages of the source.
# Tests used:
# [1] = test system: ASFV; assay type: cell-based, African Swine Fever Virus (ASFV)
# [2] = test system: macropinocytosis of PAMs; assay type: cell-based, pigs
# [3] = test system: PI3K/Akt pathway; assay type: cell-based, pigs
# [4] = test system: ASFV; assay type: cell-based, African Swine Fever Virus (ASFV); remark: listed apart in the source
# [5] = test system: ASFV; experiment: microbe, parasite or virus in culture; assay type: cell-based; details: African swine fever virus, read-out: IC50 against ASFV
# [6] = test system: ASFV; experiment: microbe, parasite or virus in culture; assay type: cell-based; details: African swine fever virus, BMDM, read-out: IC50 against ASFV
# [7] = test system: ASFV; experiment: microbe, parasite or virus in culture; assay type: cell-based; details: African swine fever virus, MA104, read-out: IC50 against ASFV
# [8] = test system: ASFV; assay type: cell-based, African Swine Fever Virus (ASFV); remark: listed apart in the source
# [9] = test system: ASFV; assay type: cell-based, African Swine Fever Virus (ASFV); remark: listed apart in the source
# [10] = test system: ASFV; assay type: cell-based, African Swine Fever Virus (ASFV); remark: listed apart in the source
# [11] = test system: ASFV; assay type: cell-based, African Swine Fever Virus (ASFV); remark: listed apart in the source
# [12] = test system: clathrin-mediated endocytosis of PAMs; assay type: cell-based, pigs
# [13] = test system: LSDV; assay type: cell-based, Lumpy Skin Disease Virus (LSDV)
# [14] = test system: PEDV; assay type: cell-based, Porcine Epidemic Diarrhea Virus (PEDV)
# [15] = test system: Vero cells
# [16] = test system: MDBK cells
# [17] = test system: IPEC-J2 cells
smiles,measurement,setting,value
O=c1cc(N2CCOCC2)oc2c(-c3ccccc3)cccc12 [LY294002],"expression of ASFV p72 (Western Blot, Fig. 7(B))",[1],not detected
same,uptake of dextran-Alexa647 by PAMs,[2],no uptake of dextran-Alexa647
same,"phosphorylation of Akt (Western Blot, Fig. 7(B))",[3],completely inhibited
same,levels of CP204L and B646L,[4],significantly suppressed
"COc1ccc2cc1Oc1ccc(cc1)C[C@H]1c3cc(c(OC)cc3CCN1C)Oc1c(OC)c(OC)cc3c1[C@H](C2)N(C)CC3 [TET, Tetrandrine]",IC50,[5],450 nM
same,IC50,[6],1150 nM
same,IC50,[7],870 nM
same,ASFV-infected (fluorescent) PAMs by IFA,[8],hardly any fluorescent PAMs were observed
same,expression level of ASFV p72 (Western Blot),[1],dose-dependent inhibition
same,"expression of ASFV p72 (Western Blot, Fig. 7(B))",[1],not detected
same,inhibition rate of TET on ASFV compared to the LY294002 control group,[1],~0%
same,level of ASFV-p72 protein (Western Blot),[1],significantly reduced
same,"ASFV p72 expression level by Western Blot, single-stage treatment",[9],significant reduction in ASFV p72 expression level was observed only during the internalization stage
same,ASFV infection after co-incubation of TET and ASFV (virucidal effect),[10],did not significantly reduce ASFV infection
same,ASFV infection level,[11],less than 0.5%
same,"transferrin-Alexa594 internalization, treated versus untreated group",[12],no significant difference
same,"Dext (dextran-Alexa647) fluorescence signal, treated versus untreated group",[2],completely disappeared
same,uptake of dextran-Alexa647 by PAMs,[2],no uptake of dextran-Alexa647
same,"phosphorylation of Akt (Western Blot, Fig. 7(B))",[3],partially inhibited
same,phosphorylation of Akt activated by ASFV internalization,[3],inhibited the phosphorylation of Akt
same,levels of CP204L and B646L,[4],significantly suppressed
same,"inhibitory effect on LSDV (LSDV 117 protein, Western Blot)",[13],dose-dependent inhibitory effect
same,"inhibitory effect on PEDV (PEDV N protein, Western Blot)",[14],dose-dependent inhibitory effect
same,cytotoxicity,[15],no cytotoxicity
same,cytotoxicity,[16],no cytotoxicity
same,cytotoxicity,[17],no cytotoxicity
